Like-named read-outs stand apart in the source and are kept apart here.
Assays:
NCI/ADR-RES = experiment: NCI-60 SRB screen, ovarian cancer; type: cell-based, human; settings: Homo sapiens, 48 h
NCI-H23 = experiment: NCI-60 SRB screen, non-small cell lung cancer; type: cell-based, human; settings: Homo sapiens
MCF-7 = experiment: cells; settings: Homo sapiens, MCF7, 48 h
T-47D = experiment: NCI-60 SRB screen, breast cancer; type: cell-based, human; settings: Homo sapiens, T47D, 48 h
SK-MEL-5 = experiment: NCI-60 SRB screen, melanoma; type: cell-based, human; settings: Homo sapiens
PC-3 = experiment: NCI-60 SRB screen, prostate cancer; type: cell-based, human; settings: Homo sapiens
MOLT-4 = experiment: NCI-60 SRB screen, leukemia; type: cell-based, human; settings: Homo sapiens
OVCAR-8 = experiment: NCI-60 SRB screen, ovarian cancer; type: cell-based, human; settings: Homo sapiens
OVCAR-3 = experiment: NCI-60 SRB screen, ovarian cancer; type: cell-based, human; settings: Homo sapiens
K-562 = experiment: NCI-60 SRB screen, leukemia; type: cell-based, human; settings: Homo sapiens, K562, 48 h
OVCAR-4 = experiment: NCI-60 SRB screen, ovarian cancer; type: cell-based, human; settings: Homo sapiens
NCI-H332M = experiment: NCI-60 SRB screen, non-small cell lung cancer; type: cell-based; settings: Homo sapiens, 48 h
RPMI-8226 = experiment: NCI-60 SRB screen, leukemia; type: cell-based, human; settings: Homo sapiens
NCI-H552 = experiment: NCI-60 SRB screen, non-small cell lung cancer; type: cell-based, human; settings: Homo sapiens, 48 h
SF539 = experiment: NCI-60 SRB screen, CNS cancer; type: cell-based, human; settings: Homo sapiens
HS 578T = experiment: NCI-60 SRB screen, breast cancer; type: cell-based; settings: Homo sapiens, 48 h
SNB-75 = experiment: NCI-60 SRB screen, CNS cancer; type: cell-based, human; settings: Homo sapiens
MDA-MB-468 = experiment: NCI-60 SRB screen, breast cancer; type: cell-based, human; settings: Homo sapiens
HOP-62 = experiment: NCI-60 SRB screen, non-small cell lung cancer; type: cell-based, human; settings: Homo sapiens
SK-OV-3 = experiment: NCI-60 SRB screen, ovarian cancer; type: cell-based, human; settings: Homo sapiens
RXF 393 = experiment: NCI-60 SRB screen, renal cancer; type: cell-based, human; settings: Homo sapiens
MDA-MB-231/ATCC = experiment: NCI-60 SRB screen, breast cancer; type: cell-based, human; settings: Homo sapiens
NCI-H460 = experiment: NCI-60 SRB screen, non-small cell lung cancer; type: cell-based, human; settings: Homo sapiens
DU-145 = experiment: NCI-60 SRB screen, prostate cancer; type: cell-based, human; settings: Homo sapiens
SK-MEL-28 = experiment: NCI-60 SRB screen, melanoma; type: cell-based, human; settings: Homo sapiens
SF295 = experiment: NCI-60 SRB screen, CNS cancer; type: cell-based, human; settings: Homo sapiens
[1] = tested on: MDA-MB-231 human breast cancer cells; experiment: Alamar Blue cell viability (antiproliferative) assay; type: cell-based; settings: read-out: IC50
M14 = experiment: NCI-60 SRB screen, melanoma; type: cell-based, human; settings: Homo sapiens
UO-31 = experiment: NCI-60 SRB screen, renal cancer; type: cell-based, human; settings: Homo sapiens
SK-MEL-2 = experiment: NCI-60 SRB screen, melanoma; type: cell-based, human; settings: Homo sapiens; SK-MEL-2; five dose 0.01–100 µM, 48 h; read-out: GI50
MALME-3M = experiment: NCI-60 SRB screen, melanoma; type: cell-based, human; settings: Homo sapiens; MALME-3M; five dose 0.01–100 µM, 48 h; read-out: GI50

With `C=C/C=C/C1C(=O)N(c2cc(OC)c(OC)c(OC)c2)C1c1ccc(OC)c(N)c1` (stereo not drawn) [11r, (E)-4-(3-Amino-4-methoxyphenyl)-3-(buta-1,3-dien-1-yl)-1-(3,4,5-trimethoxyphenyl)azetidin-2-one] the GI50 (NCI/ADR-RES) was 19.6 nM, the GI50 (NCI-H23; NCI-H23, 48 h) was 30 nM and the GI50 (MCF-7) was 33.6 nM. It also gave a GI50 (T-47D) of over 100000 nM, a GI50 (SK-MEL-5; SK-MEL-5, 48 h) of 22.2 nM and a GI50 (PC-3; PC-3, 48 h) of 39.2 nM. It also gave a GI50 (MOLT-4; MOLT-4, 48 h) of 39.6 nM, a GI50 (OVCAR-8; OVCAR-8, 48 h) of 38.4 nM and a GI50 (OVCAR-3; OVCAR-3, 48 h) of 26.2 nM. The GI50 (K-562) was 39.3 nM, the GI50 (OVCAR-4; OVCAR-4, 48 h) was 38.8 nM and the GI50 (NCI-H332M) was 57.9 nM. For the same compound, the GI50 (RPMI-8226; RPMI-8226, 48 h) was 34.8 nM, the GI50 (NCI-H552) was 16.9 nM and the GI50 (SF539; SF-539, 48 h) was 39 nM. For the same compound, the GI50 (HS 578T; Hs-578T) was 53 nM, the GI50 (SNB-75; SNB-75, 48 h) was 36.8 nM and the GI50 (MDA-MB-468; MDA-MB-468, 48 h) was 26.7 nM. For the same compound, the GI50 (HOP-62; HOP-62, 48 h) was 52.5 nM, the GI50 (SK-OV-3; SK-OV-3, 48 h) was 35.6 nM and the GI50 (RXF 393; RXF 393, 48 h) was 45.7 nM. For the same compound, the GI50 (MDA-MB-231/ATCC; MDA-MB-231, 48 h) was 31.5 nM, the IC50 (MDA-MB-231/ATCC; MDA-MB-231, 48 h, read-out: Antiproliferative Activity IC50) was 33.7 nM and the GI50 (NCI-H460; NCI-H460, 48 h) was 33.2 nM. For the same compound, the GI50 (DU-145; DU-145, 48 h) was 26 nM, the GI50 (SK-MEL-28; SK-MEL-28, 48 h) was over 100000 nM and the GI50 (SF295; SF-295, 48 h) was 30.1 nM. For the same compound, the IC50 [1] was 33 nM, the GI50 (M14; M14, 48 h) was 22.3 nM and the GI50 (UO-31; UO-31, 48 h) was 190 nM.

With `COc1ccc(C2C(C(C)C)C(=O)N2c2cc(OC)c(OC)c(OC)c2)cc1OP(=O)(O)O` (stereo not drawn) [15b, 5-(3-Isopropyl-1-(3,4,5-trimethoxyphenyl)-4-oxoazetidin-2-yl)-2-methoxyphenyl dihydrogen phosphate] the GI50 (NCI/ADR-RES; five dose 0.01–100 µM, read-out: GI50) was 212 nM, the GI50 (NCI-H23; NCI-H23, five dose 0.01–100 µM, 48 h, read-out: GI50) was 368 nM and the GI50 (MCF-7) was 244 nM. For the same compound, the GI50 (T-47D; T-47D, five dose 0.01–100 µM, read-out: GI50) was over 100000 nM, the GI50 (SK-MEL-5; SK-MEL-5, five dose 0.01–100 µM, 48 h, read-out: GI50) was 164 nM and the GI50 (PC-3; PC-3, five dose 0.01–100 µM, 48 h, read-out: GI50) was 278 nM. It also gave a GI50 (MOLT-4; MOLT-4, five dose 0.01–100 µM, 48 h, read-out: GI50) of 493 nM, a GI50 (OVCAR-8; OVCAR-8, five dose 0.01–100 µM, 48 h, read-out: GI50) of 300 nM and a GI50 (OVCAR-3; OVCAR-3, five dose 0.01–100 µM, 48 h, read-out: GI50) of 270 nM. For the same compound, the GI50 (K-562; read-out: GI50) was 374 nM, the GI50 (OVCAR-4; OVCAR-4, five dose 0.01–100 µM, 48 h, read-out: GI50) was 282 nM and the GI50 (NCI-H332M; […], five dose 0.01–100 µM, read-out: GI50) was 592 nM. The GI50 (RPMI-8226; RPMI-8226, five dose 0.01–100 µM, 48 h, read-out: GI50) was 478 nM, the GI50 (NCI-H552; NCI-H552, five dose 0.01–100 µM, read-out: GI50) was 237 nM and the GI50 (SF539; SF-539, SF539, five dose 0.01–100 µM, 48 h, read-out: GI50) was 132 nM. The GI50 (HS 578T; HS 578T, five dose 0.01–100 µM, read-out: GI50) was 173 nM, the GI50 (SNB-75; SNB-75, five dose 0.01–100 µM, 48 h, read-out: GI50) was 116 nM and the GI50 (SK-MEL-2) was 500 nM. It also gave a GI50 (MDA-MB-468; MDA-MB-468, five dose 0.01–100 µM, 48 h, read-out: GI50) of 273 nM, a GI50 (HOP-62; HOP-62, five dose 0.01–100 µM, 48 h, read-out: GI50) of 374 nM and a GI50 (SK-OV-3; SK-OV-3, five dose 0.01–100 µM, 48 h, read-out: GI50) of 416 nM. The GI50 (RXF 393; RXF 393, five dose 0.01–100 µM, 48 h, read-out: GI50) was 282 nM, the GI50 (MDA-MB-231/ATCC; MDA-MB-231/ATCC, five dose 0.01–100 µM, 48 h, read-out: GI50) was 215 nM and the GI50 (NCI-H460; NCI-H460, five dose 0.01–100 µM, 48 h, read-out: GI50) was 325 nM. For the same compound, the GI50 (DU-145; DU-145, five dose 0.01–100 µM, 48 h, read-out: GI50) was 368 nM, the GI50 (SK-MEL-28; SK-MEL-28, five dose 0.01–100 µM, 48 h, read-out: GI50) was 389 nM and the GI50 (SF295; SF-295, SF295, five dose 0.01–100 µM, 48 h, read-out: GI50) was 137 nM. It also gave a GI50 (MALME-3M) of over 100000 nM, a GI50 (M14; M14, five dose 0.01–100 µM, 48 h, read-out: GI50) of 291 nM and a GI50 (UO-31; UO-31, five dose 0.01–100 µM, 48 h, read-out: GI50) of 538 nM.

Source: publication PMC10385824, “Antiproliferative and Tubulin-Destabilising Effects of 3-(Prop-1-en-2-yl)azetidin-2-Ones and Related Compounds in MCF-7 and MDA-MB-231 Breast Cancer Cells” (Pharmaceuticals, 2023)
